Assay results taken from US20040248887A1, “Inhibitors of cathepsin S” (IRM LLC, priority 2003, published 2004).

Each compound was assayed against Cathepsin S (Homo sapiens, UniProt P25774) (assay: Cathepsin S inhibition, fluorogenic peptide substrate kinetic assay). Conditions: Table II; Cathepsin S inhibition constant, pH5.5; read-out: Ki Cat. S.
Chain of Cathepsin S (P25774 115-331, species assumed): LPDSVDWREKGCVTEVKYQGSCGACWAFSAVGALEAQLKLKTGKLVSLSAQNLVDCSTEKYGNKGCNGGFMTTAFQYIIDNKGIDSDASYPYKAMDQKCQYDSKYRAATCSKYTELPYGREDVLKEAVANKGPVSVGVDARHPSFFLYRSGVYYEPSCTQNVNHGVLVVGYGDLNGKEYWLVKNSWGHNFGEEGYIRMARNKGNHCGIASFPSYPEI
Type: biochemical
Procedure, shortened: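 Reactions were started with 50 μM (final) acetyl-His-Pro-Val-Lys-aminocarbamoylcoumarin, and hydrolysis was followed by fluorescence (ex 380/em 450 nm). Apparent inhibition constants from enzyme progress curves were converted to Ki for competitive inhibitors using substrate concentration and Km.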
`O=C(N[C@@H](CC1CCCCC1)C(=O)N[C@@H](CO)CN1CCc2cc(F)ccc21)c1ccc(-c2cccc(C(F)(F)F)c2)o1` [Compound 153, 5-(3-Trifluoromethyl-phenyl)-furan-2-carboxylic acid {2-cyclohexyl-1-(S)-[2-(5-fluoro-2,3-dihydro-indol-1-yl)-1-(R)-hydroxymethyl-ethylcarbamoyl]-ethyl}-amide] was tested, and the Ki was < 100 nM. For `C[C@@H](CNc1cccc(Cl)c1)NC(=O)[C@H](CC1CCCCC1)NC(=O)c1ccc(-c2cccc(F)c2)o1` [Compound 94, 5-(3-Fluoro-phenyl)-fuiran-2-carboxylic acid {1-(S)-[2-(3-chloro-phenylamino)-1-(S)-methyl-ethylcarbamoyl]-2-cyclohexyl-ethyl}-amide], the Ki was < 100 nM. With `O=C(N[C@@H](CC1CCCCC1)C(=O)NCCN1CCc2cc(F)ccc21)c1ccc(Oc2ccccc2)cc1` [Compound 4, N-(S)-{2-cyclohexyl-1-[2-(5-fluoro-2,3-dihydro-indol-1-yl)-ethylcarbamoyl]-ethyl}-4-phenoxy-benzamide] the Ki was < 100 nM. `C[C@@H](CNc1ccc(OC(F)(F)F)cc1)NC(=O)[C@H](CC1CCCCC1)NC(=O)O[C@H]1CCOC1` [Compound 189, {2-Cyclohexyl-1-(S)-[1-(S)-methyl-2-(4-trifluoromethoxy-phenylamino)-ethylcarbamoyl]-ethyl}-carbamic acid tetrahydrofuran-3-(S)-yl ester] was tested, and the Ki was < 100 nM. For `C[C@@H](CNc1ccc(OC(F)(F)F)cc1)NC(=O)[C@H](CC1CCCCC1)NC(=O)c1cnn(-c2ccc(F)cc2)c1` [Compound 142, 1-(4-Fluoro-phenyl)-1H-pyrazole-4-carboxylic acid {2-cyclohexyl-1-(S)-[1-(S)-methyl-2-(4-trifluoromethoxy-phenylamino)-ethylcarbamoyl]-ethyl}-amide], the Ki was < 100 nM. `O=C(N[C@@H](CC1CCCCC1)C(=O)NCCN1CCc2cc(F)ccc21)C1CCN(S(=O)(=O)c2ccc(F)cc2)CC1` [Compound 66, 1-(4-Fluoro-benzenesulfonyl)-piperidine-4-carboxylic acid (S)-{2-cyclohexyl-1-[2-(5-fluoro-2,3-dihydro-indol-1-yl)-ethylcarbamoyl]-ethyl}-amide] was tested, and the Ki was < 1000 nM. For `CC(C)(C)C[C@H](NC(=O)OCc1ccccc1)C(=O)N[C@@H](CC(=O)O)CN1CCc2cc(F)ccc21` [Compound 159, 3-(S)-(2-(S)-Benzyloxycarbonylamino-4,4-dimethyl-pentanoylamino)-4-(5-fluoro-2,3-dihydro-indol-1-yl)-butyric acid], the Ki was < 1000 nM. For `C[C@@H](CNc1ccc(OC(F)(F)F)cc1)NC(=O)[C@H](CC1CCCCC1)NC(=O)c1cc(-c2cccc(F)c2)no1` [Compound 145, 3-(3-Fluoro-phenyl)-isoxazole-5-carboxylic acid {2-cyclohexyl-1-(S)-[1-(S)-methyl-2-(4-trifluoromethoxy-phenylamino)-ethylcarbamoyl]-ethyl}-amide], the Ki was < 1000 nM. In the case of `C[C@@H](CN1CCc2cc(F)ccc21)NC(=O)[C@H](CC1CCCCC1)NS(=O)(=O)c1cccc(Cl)c1` [Compound 259, (S,S)-2-(3-Chloro-benzenesulfonylamino)-3-cyclohexyl-N-[2-(5-fluoro-2,3-dihydro-indol-1-yl)-1-methyl-ethyl]-propionamide], the Ki is reported as < 100 nM. `C[C@@H](CNc1ccc(OC(F)(F)F)cc1)NC(=O)[C@H](CC1CCCCC1)NC(=O)[C@H]1CCCO1` [Compound 30, Tetrahydrofuran-2-(R)-carboxylic acid {2-cyclohexyl-1-(S)-[1-(S)-methyl-2-(4-trifluoromethoxy-phenylamino)-ethylcarbamoyl]-ethyl}-amide] was tested, and the Ki was < 100 nM. `O=C(NCCN1CCc2cc(F)ccc21)[C@H](CC1CCCCC1)NS(=O)(=O)c1ccsc1` [Compound 248, (S)-3-Cyclohexyl-N-[2-(5-fluoro-2,3-dihydro-indol-1-yl)-ethyl]-2-(thiophene-3-sulfonylamino)-propionamide] was tested, and the Ki was < 1000 nM. `C[C@@H](CNc1ccc(OC(F)(F)F)cc1)NC(=O)[C@H](CC1CCCCC1)NC(=O)c1nnc(-c2cccc(F)c2)o1` [Compound 147, 5-(3-Fluoro-phenyl)-[1,3,4]oxadiazole-2-carboxylic acid {2-cyclohexyl-1-(S)-[1-(S)-methyl-2-(4-trifluoromethoxy-phenylamino)-ethylcarbamoyl]-ethyl}-amide] was tested, and the Ki was < 100 nM. In the case of `CC(C)(C)C[C@H](NC(=O)OC(C)(C)C)C(=O)N[C@@H](CC#N)CN1CCc2cc(F)ccc21` [Compound 164, {1-(S)-[2-Cyano-1-(S)-(5-fluoro-2,3-dihydro-indol-1-ylmethyl)-ethylcarbamoyl]-3,3-dimethyl-butyl}-carbamic acid tert-butyl ester], the Ki is reported as < 1000 nM. `Cc1cccc(C(=O)N[C@@H](Cc2ccc(Cl)cc2)C(=O)NCCN2CCc3cc(F)ccc32)c1` [Compound 199, N-((S)-1-(2-(5-fluoroindolin-1-yl)ethylcarbamoyl)-2-(4-chlorophenyl)ethyl)-3-methylbenzamide] was tested, and the Ki was < 100 nM. For `Cc1cccc(S(=O)(=O)N[C@@H](CC(C)(C)C)C(=O)N[C@@H](CC(=O)OC(C)(C)C)CN2CCc3cc(F)ccc32)c1` [Compound 252, (S,S)-3-[4,4-Dimethyl-2-(toluene-3-sulfonylamino)-pentanoylamino]-4-(5-fluoro-2,3-dihydro-indol-1-yl)-butyric acid tert-butyl ester], the Ki was < 1000 nM. In the case of `C[C@@H](CNc1ccc(OC(F)(F)F)cc1)NC(=O)[C@H](CC1CCCCC1)NC(=O)c1ccc(-c2ccc[n+]([O-])c2)o1` [Compound 144, 5-(1-Oxy-pyridin-3-yl)-furan-2-carboxylic acid {2-cyclohexyl-1-(S)-[1-(S)-methyl-2-(4-trifluoromethoxy-phenylamino)-ethylcarbamoyl]-ethyl}-amide], the Ki is reported as < 100 nM. In the case of `C[C@@H](CN1CC(C)(C)c2cc(F)ccc21)NC(=O)[C@H](CC1CCCCC1)NC(=O)O[C@@H]1CCOC1` [Compound 216, {2-Cyclohexyl-1-(S)-[2-(5-fluoro-3,3-dimethyl-2,3-dihydro-indol-1-yl)-1-(S)-methyl-ethylcarbamoyl]-ethyl}-carbamic acid (R)-tetrahydrofaran-3-yl ester], the Ki is reported as < 100 nM. In the case of `Cc1cccc(C(=O)NC(C(=O)NCCN2CCc3cc(F)ccc32)c2ccc(Cl)cc2Cl)c1` (racemic) [Compound 213, (R,S)-N-((2-(5-fluoroindolin-1-yl)ethylcarbamoyl)(2,4-dichlorophenyl)methyl)-3-methylbenzamide], the Ki is reported as < 1000 nM. For `COc1cccc(C(=O)N[C@@H](CC(C)(C)C)C(=O)N[C@@H](CC#N)CN2CCc3cc(F)ccc32)c1` [Compound 165, N-{1-(S)-[2-Cyano-1-(S)-(5-fluoro-2,3-dihydro-indol-1-ylmethyl)-ethylcarbamoyl]-3,3-dimethyl-butyl}-3-methoxy-benzamide], the Ki was < 100 nM. With `C[C@@H](CNc1cccc(S(C)(=O)=O)c1)NC(=O)[C@H](CC(C)(C)C)NC(=O)c1ccc(-c2cccc(F)c2)o1` [Compound 130, 5-(3-Fluoro-phenyl)-furan-2-carboxylic acid {1-(S)-[2-(3-methanesulfonyl-phenylamino)-1-(S)-methyl-ethylcarbamoyl]-3,3-dimethyl-butyl}-amide] the Ki was < 100 nM. With `C[C@@H](CNc1ccc(OC(F)(F)F)cc1)NC(=O)[C@H](CC1CCCCC1)NC(=O)[C@@H]1CCCO1` [Compound 29, Tetrahydrofuran-2-(S)-carboxylic acid {2-cyclohexyl-1-(S)-[1-(S)-methyl-2-(4-trifluoromethoxy-phenylamino)-ethylcarbamoyl]-ethyl}-amide] the Ki was < 100 nM. `C[C@@H](CN1c2ccc(F)cc2CC1(C)C)NC(=O)[C@H](CC1CCCCC1)NC(=O)C1CCOC1` (stereo partly drawn) [Compound 140, Tetrahydrofuran-3-carboxylic acid {2-cyclohexyl-1-(S)-[2-(5-fluoro-2,2-dimethyl-2,3-dihydro-indol-1-yl)-1-(S)-methyl-ethylcarbamoyl]-ethyl}-amide] was tested, and the Ki was < 100 nM. In the case of `O=C(N[C@@H](CC1CCCCC1)C(=O)NCCN1CCc2cc(F)ccc21)c1ccc(-c2ccccc2)s1` [Compound 82, 5-Phenyl-thiophene-2-carboxylic acid (S)-{2-cyclohexyl-1-[2-(5-fluoro-2,3-dihydro-indol-1-yl)-ethylcarbamoyl]-ethyl}-amide], the Ki is reported as < 100 nM. With `CC(=O)Nc1cccc(NC[C@H](C)NC(=O)[C@H](CC2CCCCC2)NC(=O)c2ccc(-c3cccc(F)c3)o2)c1` [Compound 134, 5-(3-Fluoro-phenyl)-furan-2-carboxylic acid {1-(S)-[2-(3-acetylamino-phenylamino)-1-(S)-methyl-ethylcarbamoyl]-2-cyclohexyl-ethyl}-amide] the Ki was < 100 nM. For `C[C@@H](CN1CC(C)(C)c2cc(F)ccc21)NC(=O)[C@H](CC1CCCCC1)NC(=O)OC1CCOCC1` [Compound 215, (S,S)-{2-Cyclohexyl-1-[2-(5-fluoro-3,3-dimethyl-2,3-dihydro-indol-1-yl)-1-methyl-ethylcarbamoyl]-ethyl}-carbamic acid tetrahydro-pyran-4-yl ester], the Ki was < 100 nM. `C[C@@H](C(=O)N[C@@H](CCC1CCCCC1)C(=O)NCCN1CCc2cc(F)ccc21)c1ccccc1` [Compound 102, 4-Cyclohexyl-N-[2-(5-fluoro-2,3-dihydro-indol-1-yl)-ethyl]-2-(S)-(2-(R)-phenyl-propionylamino)-butyramide] was tested, and the Ki was < 100 nM. In the case of `C[C@@H](CNc1ccccc1S(C)(=O)=O)NC(=O)[C@H](CC1CCCCC1)NC(=O)c1ccc(-c2cccc(F)c2)o1` [Compound 116, 5-(3-Fluoro-phenyl)-furan-2-carboxylic acid {2-cyclohexyl-1-(S)-[2-(2-methanesulfonyl-phenylamino)-1-(S)-methyl-ethylcarbamoyl]-ethyl}-amide], the Ki is reported as < 100 nM. In the case of `C[C@@H](CNc1ccc(OC(F)F)cc1)NC(=O)[C@H](CC(C)(C)C)NC(=O)c1ccc(-c2cccc(F)c2)o1` [Compound 128, 5-(3-Fluoro-phenyl)-furan-2-carboxylic acid {1-(S)-[2-(4-difluoromethoxy-phenylamino)-1-(S)-methyl-ethylcarbamoyl]-3,3-dimethyl-butyl}-amide], the Ki is reported as < 100 nM.
